For test [1], the target named is NMDA receptor subunits 1A/2C (NR1A+NR2C) (Rattus norvegicus, UniProt P35439+Q00961). The test can be described thus: Electrophysiological assay at cloned NMDA receptor subunits expressed in Xenopus oocytes, 1A/2C. The conditions noted are these: cloned rat NMDA receptor in Xenopus oocytes, two-electrode voltage clamp, currents activated by glutamate and glycine; read-out: Subunits (IC50(μM)) 1A/2C. The format is cell-based. As for the experimental part: (§1) Electrophysiological Assays at NMDA Receptor Subunits
(§2) The clones were transformed into appropriate host bacteria and plasmid preparations were made with conventional DNA purification techniques. A sample of each clone was linearized by restriction enzyme digestion and cRNA was synthesized with T3 RNA polymerase. The cRNA was diluted to 400 ng/μl and stored in 1 μl aliquots at −80° C. until injection.
(§3) The Xenopus oocyte Expression System
(§4) Follicle-enclosed oocytes were micro-injected with 1:1 mixtures of cRNA:NR1A+NR2A, 2B, 2C or 2D; injecting ˜2,5, or 20 ng of RNA encoding each receptor subunit. NR1A encoding cRNA was injected alone at ˜20 ng. Oocytes were stored in Barth's medium containing (in mM):NaCl, 88; KCl, 1; CaCl2, 0.41; Ca(NO3)2, 0.33; MgSO4, 0.82 NaHCO3, 2.4; HEPES 5, pH 7.4, with 0.1 mg/ml gentamicin sulphate. While oocytes were still surrounded by enveloping ovarian tissues the Barth's medium was supplemented with 0.1% bovine serum.
(§5) Electrical recordings were made using a conventional two-electrode voltage clamp (Dagan TEV-200) over periods ranging between 3-14 days following injection. […] Drugs were applied by bath perfusion. Using oocytes expressing different subunit combinations of NMDA receptor, NMDA currents were activated by co-application of glutamate and glycine. Inhibitory potency of the novel antagonists was assessed on responses elicited by fixed concentrations of glutamate and glycine, by measuring reductions in current induced by progressively increasing concentrations of antagonists.
(§6) Concentration-inhibition curves were fit with equation 1.
(§7) in which Icontrol is the current evoked by agonists alone, pIC50=−log IC50, IC50 is the concentration of antagonist that produces half maximal inhibition, and n is the slope factor. […] For incomplete curves analysis by fitting was unreliable and IC50 values were calculated by simple regression over linear portions of the curves (Origin: Microcal Software).

Test [2] concerns the target NMDA receptor subunits 1A/2D (NR1A+NR2D) (Rattus norvegicus, UniProt P35439+Q62645). The test can be described thus: Electrophysiological assay at cloned NMDA receptor subunits expressed in Xenopus oocytes, 1A/2D. The conditions noted are these: two-electrode voltage clamp, currents activated by glutamate and glycine. The test is classed as cell-based. The source says:
Electrophysiological Assays at NMDA Receptor Subunits […]
cDNA clones encoding the NR1A, NR2A, NR2B, NR2C and NR2D rat NMDA receptor subtypes were provided by Dr. P. H. Seeburg (see, Morivoshi et al., Nature (Lond.) 354:31-37 (1991); Kutsuwada et al., Nature (Lond.) 358:36-41 (1992) Monyer et al., Science (Washington. D.C.) 256:1217-1221 (1992); Ikeda et al., FEBS Lett. 313:34-38 (1992); Ishii et al., J. Biol. Chem. 268:2836-2843 (1993) for details of these clones or their mouse homologs). The clones were transformed into appropriate host bacteria and plasmid preparations were made with conventional DNA purification techniques. A sample of each clone was linearized by restriction enzyme digestion and cRNA was synthesized with T3 RNA polymerase. The cRNA was diluted to 400 ng/μl and stored in 1 μl aliquots at −80° C. until injection.
The Xenopus oocyte Expression System […]
Electrical recordings were made using a conventional two-electrode voltage clamp (Dagan TEV-200) over periods ranging between 3-14 days following injection. […] Inhibitory potency of the novel antagonists was assessed on responses elicited by fixed concentrations of glutamate and glycine, by measuring reductions in current induced by progressively increasing concentrations of antagonists. […]
On the technique in general: In two-electrode clamp one electrode senses voltage and the other passes current.

Test [3] deals with NMDA receptor subunits 1A/2B (NR1A+NR2B) (Rattus norvegicus, UniProt P35439+Q00960). The test can be described thus: Electrophysiological assay at cloned NMDA receptor subunits expressed in Xenopus oocytes, 1A/2B. The format is cell-based. The conditions noted are these: cloned rat NMDA receptor in Xenopus oocytes, two-electrode voltage clamp, currents activated by glutamate and glycine; read-out: Subunits (IC50(μM)) 1A/2B. As for the experimental part: as §1, §2, §3, §4, §5, §6, §7
NMDA receptor subunits 1A/2B (NR1A+NR2B), sequence (Q00960 27-1482, other chains not shown): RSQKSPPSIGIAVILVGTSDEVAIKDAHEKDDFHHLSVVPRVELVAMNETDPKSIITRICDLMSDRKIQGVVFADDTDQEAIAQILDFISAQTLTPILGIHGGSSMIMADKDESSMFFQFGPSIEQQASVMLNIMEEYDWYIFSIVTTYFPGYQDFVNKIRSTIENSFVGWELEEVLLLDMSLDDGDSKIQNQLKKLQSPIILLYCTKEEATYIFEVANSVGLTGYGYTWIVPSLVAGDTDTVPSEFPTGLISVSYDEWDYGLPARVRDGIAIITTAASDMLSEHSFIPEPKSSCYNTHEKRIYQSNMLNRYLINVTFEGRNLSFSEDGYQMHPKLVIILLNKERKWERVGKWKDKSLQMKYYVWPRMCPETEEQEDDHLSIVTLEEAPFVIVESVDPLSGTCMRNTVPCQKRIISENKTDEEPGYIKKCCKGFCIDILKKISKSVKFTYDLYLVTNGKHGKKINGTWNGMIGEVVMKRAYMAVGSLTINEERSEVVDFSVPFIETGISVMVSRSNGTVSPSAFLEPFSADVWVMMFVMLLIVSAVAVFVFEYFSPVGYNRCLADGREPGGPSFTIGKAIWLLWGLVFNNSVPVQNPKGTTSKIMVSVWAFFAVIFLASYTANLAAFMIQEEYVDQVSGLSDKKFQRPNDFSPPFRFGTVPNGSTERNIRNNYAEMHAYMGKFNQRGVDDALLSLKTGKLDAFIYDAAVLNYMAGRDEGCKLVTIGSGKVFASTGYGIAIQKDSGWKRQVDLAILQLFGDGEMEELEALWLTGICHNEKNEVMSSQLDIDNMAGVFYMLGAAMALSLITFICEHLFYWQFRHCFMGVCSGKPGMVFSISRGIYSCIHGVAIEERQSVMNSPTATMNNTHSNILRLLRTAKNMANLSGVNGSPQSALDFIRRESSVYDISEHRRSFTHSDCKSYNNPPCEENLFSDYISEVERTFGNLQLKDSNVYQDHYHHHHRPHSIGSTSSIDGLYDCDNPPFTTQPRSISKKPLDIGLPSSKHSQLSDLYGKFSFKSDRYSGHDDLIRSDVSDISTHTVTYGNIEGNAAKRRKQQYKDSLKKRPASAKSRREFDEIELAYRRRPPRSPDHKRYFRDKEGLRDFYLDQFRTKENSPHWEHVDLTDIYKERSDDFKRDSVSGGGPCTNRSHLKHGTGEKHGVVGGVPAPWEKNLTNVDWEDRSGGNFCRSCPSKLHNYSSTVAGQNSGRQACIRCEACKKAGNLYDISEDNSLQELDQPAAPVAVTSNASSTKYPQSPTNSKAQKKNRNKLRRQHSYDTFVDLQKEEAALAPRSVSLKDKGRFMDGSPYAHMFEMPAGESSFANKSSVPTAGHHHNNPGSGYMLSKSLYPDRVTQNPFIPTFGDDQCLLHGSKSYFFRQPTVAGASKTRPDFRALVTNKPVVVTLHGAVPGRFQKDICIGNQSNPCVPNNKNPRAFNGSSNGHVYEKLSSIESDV

Test [4] has as its target NMDA receptor subunits 1A/2A (NR1A+NR2A) (Rattus norvegicus, UniProt P35439+Q00959). As to the kind of experiment: Electrophysiological assay at cloned NMDA receptor subunits expressed in Xenopus oocytes, 1A/2A. The test is classed as cell-based. The note with it: cloned rat NMDA receptor in Xenopus oocytes, two-electrode voltage clamp, currents activated by glutamate and glycine; read-out: Subunits (IC50(μM)) 1A/2A. Here is the method: as §1, §2, §3, §4, §5, §6, §7

In test [5] the test system is maximal electroshock-induced seizures. The test can be described thus: Maximal electroshock-induced seizures (MES). The format is in vivo, mice. The note with it: Mus musculus; mice, tonic hindlimb extensor response, 50 mA corneal electrodes; read-out: MES (ED50). Here is the method:
Maximal Electroshock-induced Seizures
Seizures were induced by application of current (50 mA, 60 pulses/sec, 0.8 sec pulse width, 1 sec duration, d.c.) through saline-coated corneal electrodes using a Ugo Basile ECT device (Model 7801). […] A tonic seizure was defined as a hindlimb extension in excess of 90 degrees from the plane of the body. Results were treated in a quantal manner.
(In the maximal electroshock model the usual endpoint is tonic extension of the hind limbs.)

SMILES strings stand for the structures.

The ED50 is the midpoint of the dose-response relation.

NMDA receptor subunits 1A/2D (NR1A+NR2D), sequence (Q62645 28-1323, other chains not shown): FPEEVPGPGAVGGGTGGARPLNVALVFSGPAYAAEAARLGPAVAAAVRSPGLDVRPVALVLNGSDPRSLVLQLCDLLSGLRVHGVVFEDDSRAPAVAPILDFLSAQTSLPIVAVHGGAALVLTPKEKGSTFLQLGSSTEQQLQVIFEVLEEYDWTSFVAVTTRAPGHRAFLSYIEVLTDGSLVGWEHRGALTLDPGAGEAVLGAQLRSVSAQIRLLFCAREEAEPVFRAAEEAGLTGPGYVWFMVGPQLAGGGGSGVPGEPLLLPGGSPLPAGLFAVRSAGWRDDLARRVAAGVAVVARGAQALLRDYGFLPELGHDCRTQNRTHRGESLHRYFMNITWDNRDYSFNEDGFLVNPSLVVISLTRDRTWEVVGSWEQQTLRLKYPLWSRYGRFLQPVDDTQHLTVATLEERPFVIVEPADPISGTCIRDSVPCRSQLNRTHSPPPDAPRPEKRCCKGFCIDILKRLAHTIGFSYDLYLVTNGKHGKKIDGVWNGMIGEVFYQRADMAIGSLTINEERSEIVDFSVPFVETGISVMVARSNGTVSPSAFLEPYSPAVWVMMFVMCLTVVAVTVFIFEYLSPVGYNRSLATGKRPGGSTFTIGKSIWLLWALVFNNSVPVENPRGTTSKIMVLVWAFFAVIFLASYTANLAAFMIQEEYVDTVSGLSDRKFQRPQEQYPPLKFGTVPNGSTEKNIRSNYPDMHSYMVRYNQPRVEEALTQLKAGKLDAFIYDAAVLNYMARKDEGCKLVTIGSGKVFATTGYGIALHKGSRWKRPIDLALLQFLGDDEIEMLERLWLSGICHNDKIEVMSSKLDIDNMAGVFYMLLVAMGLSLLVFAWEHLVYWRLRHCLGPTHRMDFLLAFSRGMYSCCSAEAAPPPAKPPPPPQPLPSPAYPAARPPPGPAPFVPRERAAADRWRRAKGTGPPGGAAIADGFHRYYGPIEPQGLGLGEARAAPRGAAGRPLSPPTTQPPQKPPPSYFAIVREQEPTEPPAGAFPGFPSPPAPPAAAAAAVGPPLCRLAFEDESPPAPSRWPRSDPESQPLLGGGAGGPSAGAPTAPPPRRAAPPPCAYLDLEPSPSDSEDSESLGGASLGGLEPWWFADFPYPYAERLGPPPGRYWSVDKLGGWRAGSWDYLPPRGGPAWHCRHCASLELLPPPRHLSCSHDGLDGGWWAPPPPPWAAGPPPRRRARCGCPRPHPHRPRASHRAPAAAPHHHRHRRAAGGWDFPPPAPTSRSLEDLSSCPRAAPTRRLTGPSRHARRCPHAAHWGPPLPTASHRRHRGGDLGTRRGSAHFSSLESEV
NMDA receptor subunits 1A/2A (NR1A+NR2A), sequence (Q00959 23-1464, other chains not shown): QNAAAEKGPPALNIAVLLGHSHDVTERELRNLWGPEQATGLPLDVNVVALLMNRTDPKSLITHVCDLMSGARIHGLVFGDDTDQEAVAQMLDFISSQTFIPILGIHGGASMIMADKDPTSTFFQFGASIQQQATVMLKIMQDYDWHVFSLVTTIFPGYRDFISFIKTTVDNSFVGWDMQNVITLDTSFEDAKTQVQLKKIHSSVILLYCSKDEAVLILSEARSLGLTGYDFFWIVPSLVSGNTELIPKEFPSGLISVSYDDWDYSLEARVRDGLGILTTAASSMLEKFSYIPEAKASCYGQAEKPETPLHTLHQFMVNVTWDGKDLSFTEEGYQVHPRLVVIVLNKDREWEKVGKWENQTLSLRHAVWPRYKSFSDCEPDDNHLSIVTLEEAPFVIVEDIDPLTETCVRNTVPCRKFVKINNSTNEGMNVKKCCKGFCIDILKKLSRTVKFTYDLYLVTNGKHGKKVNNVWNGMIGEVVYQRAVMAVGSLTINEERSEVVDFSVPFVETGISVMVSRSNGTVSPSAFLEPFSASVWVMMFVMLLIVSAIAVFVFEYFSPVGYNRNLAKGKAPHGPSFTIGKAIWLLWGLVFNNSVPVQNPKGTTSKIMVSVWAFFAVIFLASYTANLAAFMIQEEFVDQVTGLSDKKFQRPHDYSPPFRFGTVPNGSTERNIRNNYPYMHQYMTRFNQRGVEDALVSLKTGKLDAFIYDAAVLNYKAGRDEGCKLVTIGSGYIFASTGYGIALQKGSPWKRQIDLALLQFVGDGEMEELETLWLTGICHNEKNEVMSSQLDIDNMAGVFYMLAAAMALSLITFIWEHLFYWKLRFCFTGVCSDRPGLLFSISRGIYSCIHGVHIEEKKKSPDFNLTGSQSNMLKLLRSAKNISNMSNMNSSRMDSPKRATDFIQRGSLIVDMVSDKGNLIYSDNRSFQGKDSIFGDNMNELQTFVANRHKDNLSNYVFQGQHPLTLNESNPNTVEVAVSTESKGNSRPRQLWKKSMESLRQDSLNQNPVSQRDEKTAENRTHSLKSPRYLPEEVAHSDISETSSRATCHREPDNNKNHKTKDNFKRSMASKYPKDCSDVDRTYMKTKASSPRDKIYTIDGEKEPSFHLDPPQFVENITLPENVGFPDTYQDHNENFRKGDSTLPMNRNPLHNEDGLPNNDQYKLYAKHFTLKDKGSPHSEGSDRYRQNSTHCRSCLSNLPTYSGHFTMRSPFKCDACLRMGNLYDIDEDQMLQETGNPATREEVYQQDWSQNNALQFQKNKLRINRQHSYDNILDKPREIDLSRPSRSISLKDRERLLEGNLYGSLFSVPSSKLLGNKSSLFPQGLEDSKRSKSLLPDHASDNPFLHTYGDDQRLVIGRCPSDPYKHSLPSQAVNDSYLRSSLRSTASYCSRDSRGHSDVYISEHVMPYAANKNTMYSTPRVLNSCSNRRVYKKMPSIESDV

With `Cc1ccccc1OCC(O)CN1CCCCC1Cc1ccccc1` (stereo not drawn) [Example 18, 2-Benzyl-1-[2-hydroxy-3-(2-methyl)phenoxy]propylpiperidine], the IC50 is over 100 µM in test [1], over 300 µM in test [2], 50 µM in test [3] and 23 µM in test [4].
`CCOc1ccccc1OCC1CCCCN1CCCOc1ccccc1` (stereo not drawn) [Example 17, 2-[(2-Ethoxy)phenyoxy]methyl-1-(3-phenoxy)propylpiperidine]: in test [5], the ED50 is 1 mg/kg. The IC50 in test [1] was 110 µM; in test [2] it was over 300 µM; in test [3], 35 µM; in test [4], 13 µM.

The values above are taken from US6534525B1, “2-substituted piperidine analogs and their use as subtype-selective NMDA receptor antagonists” (Warner-Lambert & Company, priority 1995, dated 2003).
